Measured values taken from patent US5817840A, “Water soluble taxol derivatives” (The Scripps Research Institute, priority 1997, dated 1998).
Entries after “also recorded” stand apart in the source; their conditions may differ.

Key:
[1] = system: RPMI-7666 (normal human PBLs); assay: Cytotoxicity (sulphorhodamine B), normal cell line, Table 1B; format: cell-based; conditions: 72 h
Experimental: (§4) The cytotoxicities were determined using the sulphorhodamine B assay method (Skehan, P. et al. J. Nat. Canc. Inst. 82, 1107 (1990)).

[2] = system: BALB/c 3T3 (normal mouse embryo); assay: as above; format: cell-based; conditions: BALB/c3T3, 72 h
[3] = system: CHO (normal human mammary); assay: as above; format: cell-based; conditions: Homo sapiens, 72 h
Capan-1 (pancreatic) = assay: Cytotoxicity (sulphorhodamine B), cancer cell line, Table 1B; format: cell-based; conditions: Homo sapiens, CAPAN-1, 72 h
Experimental: as §4

MCF-7 (breast carcinoma) [4] = assay: as above; format: cell-based; conditions: Homo sapiens, MCF7, 72 h
Experimental: as §4

[5] = system: BT-549 (breast carcinoma); assay: as above; format: cell-based; conditions: Homo sapiens, BT-549, 72 h
Experimental: as §4

SIHA (cervix carcinoma) = assay: as above; format: cell-based; conditions: Homo sapiens, SiHa, 72 h
Experimental: as §4

[6] = system: 786-0 (renal cell carcinoma); assay: as above; format: cell-based; conditions: Homo sapiens, 786-0, 72 h
Experimental: as §4

[7] = system: HL-60 (promyel carcinoma); assay: as above; format: cell-based; conditions: Homo sapiens, HL-60, 72 h
Experimental: as §4

[8] = system: MOLT-4 (T-cell leukaemia); assay: as above; format: cell-based; conditions: Homo sapiens, MOLT-4, 72 h
Experimental: as §4

L1210 (mouse leukaemia) = assay: as above; format: cell-based; conditions: L1210, 72 h
Experimental: as §4

[9] = system: 786-0 (human perirenal cell adenocarci); assay: Cytotoxicity, Example 8; format: cell-based; conditions: 786-0, 72 h
Experimental: (§1) Tumor or normal cells were cultured in 96-well plates with the test compound in 200 μl of RPMI supplemented with 10% fetal bovine serum (Hyclone, Salt Lake City, Utah) at 37° C. in a humidified atmosphere containing 5% CO2 in air for 72 hours. Sulforhodamine B dissolved in 1% acetic acid was added, and the plates were incubated for 30 minutes at ambient temperature, washed with 1% acetic acid, and blotted. To the air-dried plates were added 100 μl of […] unbuffered TRIS base (pH 10.5) with shaking. The optical densities of the plates were measured with a microplate reader (Molecular Devices Thermomax) at 540 nm. The concentration of compound required to reduce the absorbance to 50% of control samples was recorded as IC50.
(§2) NHDF: Normal human dermal fibroblast (available from Clouelics Corp., San Diego, Calif.); HLF-1: Normal human diploid lung; W1-38; Normal human diploid lung; CHO; Chinese hamster ovary; SK-MEL-28: Melanoma; CAPAN-1: Pancreatic carcinoma; H322: lung carcinoma; MCF-7; Breast carcinoma; BT-549; Human breast ductal carcinoma; OVCAR-3: Human ovarian carcinoma; HT-29: Human adenocarcinoma, colon; SIHA: Human squamous carcinoma crvx; 786-0: Human perirenal cell adenocarci; PC-3: Human prostate adenocarcinoma; HL-60: Human promyelomic leukemia; MOLT-4: Human T-cell leukemia. All cell lines except NHDF are available from the American Tissue Culture Collection, Rockville, Md.

[10] = system: BT-549 (human breast ductal carcinoma); assay: Cytotoxicity, Example 8; format: cell-based; conditions: BT-549, 72 h
Experimental: as §1, §2

[11] = system: CAPAN-1 (pancreatic carcinoma); assay: Cytotoxicity, Example 8; format: cell-based; conditions: Homo sapiens, CAPAN-1, 72 h
Experimental: as §1, §2

[12] = system: CHO (Chinese hamster ovary); assay: Cytotoxicity, Example 8; format: cell-based; conditions: Cricetulus griseus, 72 h
Experimental: as §1, §2

H322 (lung carcinoma) = assay: Cytotoxicity, Example 8; format: cell-based; conditions: NCI-H322, 72 h
Experimental: as §1, §2

[13] = system: HLF-1 (normal human diploid lung); assay: Cytotoxicity, Example 8; format: cell-based; conditions: HLF1, 72 h
Experimental: as §1, §2

[14] = system: HT-29 (human adenocarcinoma, colon); assay: Cytotoxicity, Example 8; format: cell-based; conditions: HT-29, 72 h
Experimental: as §1, §2

MCF-7 (breast carcinoma) [15] = assay: Cytotoxicity, Example 8; format: cell-based; conditions: Homo sapiens, MCF7, 72 h
Experimental: as §1, §2

[16] = system: NHDF (normal human dermal fibroblast); assay: Cytotoxicity, Example 8; format: cell-based; conditions: 72 h
Experimental: as §1, §2

[17] = system: OVCAR-3 (human ovarian carcinoma); assay: Cytotoxicity, Example 8; format: cell-based; conditions: OVCAR-3, 72 h
Experimental: as §1, §2

[18] = system: PC-3 (human prostate adenocarcinoma); assay: Cytotoxicity, Example 8; format: cell-based; conditions: 72 h
Experimental: as §1, §2

[19] = system: S1HA (human squamous carcinoma crvx); assay: Cytotoxicity, Example 8; format: cell-based; conditions: 72 h
Experimental: as §1, §2

SK-MEL-28 (melanoma) = assay: Cytotoxicity, Example 8; format: cell-based; conditions: Homo sapiens, SK-MEL-28, 72 h
Experimental: as §1, §2

[20] = system: W1-38 (normal human diploid lung); assay: Cytotoxicity, Example 8; format: cell-based; conditions: W138, 72 h
Experimental: as §1, §2

[21] = Water solubility in D2O by 1H NMR; conditions: compared to taxol
Experimental: The solubilities of the synthesized protaxols in D2 O were determined by 1H NMR spectroscopy.
The resulting mixture was centrifuged for 20 minutes and the supernatant saturated solution was analysed by ^1 H NMR spectroscopy using a Bruker AMX-400 instrument and methanol or pyridine as internal standard. The concentration of the compound was determined by comparing several signals with the CH3 signal of methanol or the NCH signal of pyridine.

[22] = Taxol release from protaxols in aqueous buffer; format: physicochemical; conditions: pH 7.0-9.0, 20 and 37° C., FIG. 2A
Experimental: (§3) The derivatives in which the C-7 hydroxyl group was acetylated were extremely unstable in aqueous media losing the C-7 substituent very rapidly. The stability of the synthesized compounds was examined at various pH's and temperatures. […] Table 1A includes the half-lives of six of these compounds at pH 7.5 and 9. […] This illustrates the ability to fine-tune the rate of release of taxol to a desired set of conditions using simple chemical principles.
Protaxol 5 was dissolved in dimethylsulphoxide (DMSO) at 25° C. and immediately added to the appropriate phosphate buffer solution at the specified temperature. Aliquots were analysed using a Waters Maxima system HPLC instrument equipped with auto-injector (3.9×300 mm C18 column equipped with a precolumn; flow rate, 1.5 ml min^-1; eluant, gradient A-B, where A is 80% 100 mM ammonium acetate, buffer pH 6.0, and B is 100% methanol; ultraviolet detector). The per cent taxol released was determined from the relative areas of the peaks corresponding to protaxol 5 and taxol (the conversion was clean, and it was assumed that the two compounds have equal molar extinction coefficients).

[23] = Stability in aqueous media, aprotic organic solvents and solid state; format: physicochemical; conditions: aqueous media / pH 7.0 buffer / 20° C.
Text: as §3

CC(=O)O[C@H]1C(=O)[C@@]2(C)[C@H]([C@H](OC(=O)c3ccccc3)[C@]3(O)C[C@H](OC(=O)[C@H](OC(=O)CS(=O)(=O)CC(=O)O)[C@@H](NC(=O)c4ccccc4)c4ccccc4)C(C)=C1C3(C)C)[C@]1(OC(C)=O)CO[C@@H]1C[C@@H]2O [Compound 5]
IC50 [1]: 100 µM
IC50 [2]: 10 µM
IC50 [3]: 100 µM
IC50 (Capan-1 (pancreatic)): < 0.001 µM
IC50 (MCF-7 (breast carcinoma) [4]): 10 µM
IC50 [5]: < 0.001 µM
IC50 (SIHA (cervix carcinoma)): 100 µM
IC50 [6]: 1 µM
IC50 [7]: < 0.001 µM
IC50 [8]: 0.001 µM
IC50 (L1210 (mouse leukaemia)): 10 µM
IC50 [9]: 0.13 µM
IC50 [10]: 0.098 µM
IC50 [11]: 0.19 µM
IC50 [12]: 100 µM
IC50 (H322 (lung carcinoma)): 5 µM
IC50 [13]: 13 µM
IC50 [14]: 0.098 µM
IC50 (MCF-7 (breast carcinoma) [15]): 61 µM
IC50 [16]: 0.19 µM
IC50 [17]: 0.098 µM
IC50 [18]: 50 µM
IC50 [19]: 50 µM
IC50 (SK-MEL-28 (melanoma)): 100 µM
IC50 [20]: 13 µM
Water solubility (in words) [21]: good solubility
effect of temperature and pH on taxol release [22]: accelerating effect of higher temperatures and pH on taxol release
stability in aqueous media [23]: good solubility and stability properties in aqueous media; also recorded: quite stable
